Values of other authors in patent publication US20230320987A1, “LIPID NANOPARTICLES AND LIPOSOMES” (National Health Research Institutes, priority 2022, published 2023).

Assays:
[1] = after subcutaneous injection into a human body

Which half-life [1] does the source give for `Cc1cc(NC2CCN(C(=O)CCNCC(=O)O)CC2)nc(NCc2nc(CCCNCCCNC3CCCCC3)co2)n1` [CX-1, (3-{4-[2-({4-[3-(3-cyclohexylaminopropylamino)propyl]oxazol-2-ylmethyl}amino)-6-methyl-pyrimidin-4-ylamino]piperidin-1-yl}-3-oxopropylamino)acetic acid] here?
Its half-life is “less than one”.

And the water solubility?
The water solubility was “high”.
